Reference: ChEMBL document CHEMBL2331134, “Design and synthesis of 3,5-diaryl-4,5-dihydro-1H-pyrazoles as new tyrosinase inhibitors” (Bioorg Med Chem, 2013)
pIC50: −log10 of the molar value. Activity calls are given as the source filed them. No cut-off for these calls is given here.

How the values were obtained:
Tyrosinase = target: T1, Tyrosinase (Agaricus bisporus, UniProt O42713)
T1 sequence (O42713 whole entry): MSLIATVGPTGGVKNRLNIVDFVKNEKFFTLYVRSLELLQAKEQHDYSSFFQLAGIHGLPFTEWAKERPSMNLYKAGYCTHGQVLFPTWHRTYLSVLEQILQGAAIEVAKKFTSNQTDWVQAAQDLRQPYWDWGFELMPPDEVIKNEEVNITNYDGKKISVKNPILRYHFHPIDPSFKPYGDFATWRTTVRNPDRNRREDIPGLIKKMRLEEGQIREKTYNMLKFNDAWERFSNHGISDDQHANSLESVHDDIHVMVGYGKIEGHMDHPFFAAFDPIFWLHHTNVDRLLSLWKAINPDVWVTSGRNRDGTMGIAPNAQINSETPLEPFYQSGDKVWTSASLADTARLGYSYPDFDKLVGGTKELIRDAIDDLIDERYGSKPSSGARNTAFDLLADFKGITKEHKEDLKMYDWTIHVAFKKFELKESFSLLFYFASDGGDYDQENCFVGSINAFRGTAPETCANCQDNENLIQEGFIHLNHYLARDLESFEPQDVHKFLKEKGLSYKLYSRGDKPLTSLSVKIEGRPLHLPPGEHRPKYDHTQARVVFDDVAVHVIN
Description: Inhibition of mushroom tyrosinase assessed as reduction in diphenolase activity using L-DOPA substrate pre-incubated for 20 mins at 30 degC

[1] = target: T2, Tyrosinase (Agaricus bisporus) (UniProt O42713); experiment: Competitive inhibition of mushroom tyrosinase assessed as reduction in L-DOPA oxidation by Lineweaver-Burk plot
T2 sequence (whole entry): T1 sequence (O42713 whole entry)

| SMILES | pIC50 (Tyrosinase) | inhibition [1] |
| --- | --- | --- |
| O=C1CC(c2ccc(O)cc2O)Oc2cc(O)cc(O)c21 (stereo unspecified) |  | Active |
| O=C(/C=C/c1ccc(O)cc1O)c1ccc(O)cc1O |  | Active |
| Oc1ccc(C2CC(c3ccccc3O)=NN2)cc1 (stereo unspecified) | 4.93 |  |
| Oc1cccc(C2CC(c3ccc(O)cc3O)=NN2)c1 (stereo unspecified) | 6.08 | Active |
| COc1cc(C2CC(c3ccc(O)cc3O)=NN2)ccc1O (stereo unspecified) | 5.61 |  |
| Oc1ccc(C2CC(c3ccc(O)cc3O)=NN2)cc1 (stereo unspecified) | 6.05 | Active |
| O=C(OCc1ccc(O)cc1)c1ccc(O)cc1O |  | Active |
| CC(=O)N1N=C(c2ccc(O)cc2)CC1c1ccc(O)cc1 (stereo unspecified) | 5.45 |  |
| O=c1cc(-c2ccc(O)cc2O)oc2cc(O)cc(O)c12 [NORARTOCARPETIN] | < 3.70 |  |
| COc1cc(OC)cc(-c2nc(-c3ccc(O)cc3O)cs2)c1 | 5.70 |  |

Now from value to molecule:

| pIC50 (Tyrosinase) | inhibition [1] | SMILES |
| --- | --- | --- |
| < 3.70 |  | CC(=O)N1N=C(c2ccccc2O)CC1c1ccc(O)c(O)c1 (stereo unspecified) |
| 5.56 | Active | CC(=O)N1N=C(c2ccc(O)cc2O)CC1c1ccc(O)c(O)c1 (stereo unspecified) |
| 5.77 | Active | CC(=O)N1N=C(c2ccc(O)cc2O)CC1c1ccc(O)cc1 (stereo unspecified) |
| < 3.70 |  | CC(=O)N1N=C(c2ccccc2O)CC1c1cccc(O)c1 (stereo unspecified) |
| 3.83 |  | CC(=O)N1N=C(c2ccc(O)cc2)CC1c1cccc(O)c1 (stereo unspecified) |
| 6.06 | Active | CC(=O)N1N=C(c2ccc(O)cc2O)CC1c1cccc(O)c1 (stereo unspecified) |
| < 3.70 |  | CC(=O)N1N=C(c2cc(O)cc(O)c2)CC1c1cccc(O)c1 (stereo unspecified) |
| 4.87 |  | COc1cc(C2CC(c3ccccc3O)=NN2C(C)=O)ccc1O (stereo unspecified) |
| < 3.70 |  | COc1cc(O)ccc1C1CC(c2ccccc2O)=NN1C(C)=O (stereo unspecified) |
| 5.97 |  | CC(=O)N1N=C(c2ccc(O)cc2)CC1c1ccc(O)c(O)c1 (stereo unspecified) |
| < 3.70 |  | CC(=O)N1N=C(c2ccc(O)cc2O)CC1c1ccc(O)c([N+](=O)[O-])c1 (stereo unspecified) |
| < 3.70 |  | COc1cc(C2CC(c3ccc(O)cc3)=NN2C(C)=O)ccc1O (stereo unspecified) |
| 3.79 |  | CC(=O)N1N=C(c2cc(O)cc(O)c2)CC1c1ccc(O)cc1 (stereo unspecified) |
| 6.52 | Active | COc1cc(C2CC(c3ccc(O)cc3O)=NN2C(C)=O)ccc1O (stereo unspecified) |
| 4.88 |  | CC(=O)N1N=C(c2ccccc2O)CC1c1ccc(O)cc1 (stereo unspecified) |
